Assay results as given in patent US6855507B2, “Method of screening for pharmaceuticals by detecting cross talk between intracellular signals and intranuclear receptors” (Chugai Seiyaku Kabushiki Kaisha, priority 1998, dated 2005).

Test system: VDR and Smad3
Experiment: GST-pull down analysis of VDR and Smad3 interaction (cell-free)
Assay type: binding
Settings: FIG. 5
Procedure: GST fused Smad3 or VDR (full length peptide 1-424, partial peptides: amino acid sequence 115-424, 115-357, 115-300 and others, see FIG. 4) fused proteins (GST-Smad3 or GST-VDR) were expressed by using E.coli, and were captured on beads with glutatione-Sepharose bead (Pharmacia) to accomplish affinity purification. On the other hand, ^35S-methionine-labeled Smad3 and VDR were prepared in cell-free system by using reticulocyte lysate translation system (Promega). GST-Smad3 or GST-VDR fixed on beads described above was incubated with ^35S-methionine labeled VRD or Smad3. By using polyacrylamide gel electrophoresis, ^35S-methionine labeled VDR or Smad3 were analyzed.

C=C1/C(=C\C=C2/CCC[C@]3(C)[C@@H]([C@H](C)CCCC(C)(C)O)CC[C@@H]23)C[C@@H](O)C[C@@H]1O [1,25(OH)2VD3]
binding of full length VDR to Smad3 in the presence of ligand (1 nM): slightly bound | ligand requirement of binding of VDR partial peptides 115-357 and 115-300 to Smad3: did not require
